Laboratory results as given in patent US20220306695A1, “COMPSTATIN ANALOGUES AND THEIR MEDICAL USES” (priority 2019, published 2022).
Starred links: 1 amine or outer side, 2 acyl side, 3 side chain; linkers in the order of their positions; H or OH if unused. Positions of bridges follow the written chain, without caps; N, C: chain ends. Non-standard residues stand in square brackets, D forms with d. Residues, ends and D or L forms follow the SMILES beside them. Groups on a side chain read outwards from the residue. *: point of attachment. Trp(1-Me) = Cn1cc(C[C@H](N)C(=O)O)c2ccccc21; Abu(4-yl) = O=C([C@H](CC[*:3])N[*:1])[*:2]; C18 diacid = O=C(O)CCCCCCCCCCCCCCCCC(=O)*; C16 diacid = O=C(O)CCCCCCCCCCCCCCC(=O)*; γGlu = O=C(O)[C@H](CCC(=O)[*:2])N[*:1]; AEEA = NCCOCCOCC(=O)O; Sar = CNCC(=O)O

Legend:
[1] = Solubility test at 10 mg/mL (visual inspection and light scattering); assay type: physicochemical; conditions: for Solubility, Condition 1 Acetate pH 4: 10 mg/mL compound in 100 mM acetate pH 4; for Solubility, Condition 2 Acetate pH 5: 10 mg/mL compound in 100 mM acetate pH 5; for Solubility, Condition 3 Phosphate pH 6: 10 mg/mL compound in 100 mM phosphate pH 6; for Solubility, Condition 4 Phosphate pH 7: 10 mg/mL compound in 100 mM phosphate pH 7; for Solubility, Condition 5 Phosphate pH 7.5: 10 mg/mL compound in 100 mM phosphate pH 7.5
in vivo = assay: in vivo; parameters: species or system Cynomolgus monkeys (Macaca fascicularis); conditions: male, cynomolgus monkey, sc, 1840 nmol/kg, t½
Method: Healthy male Cynomolgus monkeys (Macaca fascicularis) received single subcutaneous administrations of each test substance. Compounds were formulated in 20 mM phosphate adjusted with NaOH to pH 7.5 and mannitol for isotonicity and dosed at 1840 nmol/kg. Blood was collected from a femoral vein from each animal at the following times: Pre-dose, 1, 2, 4, 8, 24, 48, 72, 96 and 120 h (10 sampling times). Blood was collected into serum separation tubes and allowed to clot at room temperature. The tubes were centrifuged and resulting serum was aliquoted and snap-frozen over dry-ice and stored at nominally −80° C. until analysis. All NHP studies were performed in accordance with animal welfare laws and regulations, including approval of the study by a local ethical review process.
In order to assess pharmacokinetic half-life (t %/), serum samples isolated from non-human primates at specific time points after dosing were analysed for total drug compound after sample preparation by solid phase extraction (SPE) and liquid chromatography mass spectrometry (LC-MS/MS) using analogue internal standard. Single measurement of serum concentrations were used for calculation of the pharmacokinetic parameters using the non-compartmental approach in Phoenix WinNonlin 6.3. Plasma terminal elimination half-life (ty) was determined as In(2)/λz where λz is the magnitude of the slope of the log linear regression of the log concentration versus time profile during the terminal phase.

[2] = test system: classical complement pathway; assay: In vitro haemolysis assay (inhibition of classical complement pathway); assay type: cell-based, human; conditions: Table 3; human serum, sensitized sheep red blood cells; read-out: IC50[nM], in vitro analysis of inhibition of hemolysis
How it was run: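 Serially diluted compound (9 points) was preincubated 15 min at room temperature with diluted human serum, titrated per batch to give 70-90% maximal haemolysis, in Tris/casein buffer pH 7.4 with Mg2+/Ca2+. Antibody-sensitized sheep erythrocytes were then added for 30 min at 37° C, and the reaction was stopped with EDTA. Haemolysis was read at A405, with IC50 from 4PL fit.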

half-life (in vivo)	Structure (SMILES)	Solubility, Condition 1 Acetate pH 4 [1]	Solubility, Condition 2 Acetate pH 5 [1]	Solubility, Condition 3 Phosphate pH 6 [1]	Solubility, Condition 4 Phosphate pH 7 [1]	Solubility, Condition 5 Phosphate pH 7.5 [1]	IC50 [2]
96.3 h	CC[C@H](C)[C@@H]1NC(=O)[C@@H](NC(=O)[C@H](Cc2ccc(O)cc2)NC(=O)[C@H](C)NC(=O)[C@H](CO)NC(=O)CNC(=O)[C@H](CCC(=O)O)NC(C)=O)CSSC[C@@H](C(=O)N(C)CC(=O)N[C@@H](CCC(=O)O)C(=O)NCC(=O)N[C@@H](CCCCNC(=O)COCCOCCNC(=O)COCCOCCNC(=O)CC[C@H](NC(=O)CCCCCCCCCCCCCCC(=O)O)C(=O)O)C(N)=O)NC(=O)[C@H](CCCNC(=N)N)NC(=O)[C@H](Cc2c[nH]cn2)NC(=O)[C@H](CCC(=O)O)NC(=O)CNC(=O)[C@H](Cc2c[nH]c3ccccc23)NC(=O)[C@H](CC(=O)O)NC(=O)[C@H](CCC(N)=O)NC(=O)[C@H](Cc2cn(C)c3ccccc23)NC1=O [Compound 104] (Ac-EGSAYCI[Trp(1-Me)]QDWGEHRC[Sar]EGK([AEEA-AEEA-γGlu-C16 diacid])-NH2; disulfide 6-16)	− (denotes lack of solubility at the given condition, as UV absorbance at 340 nm exceeds 0.1 AU and/or it is visibly turbid or contains particles.)	+ (denotes solubility at the given condition, as determined by UV absorbance being less than 0.1 AU at 340 nm and the sample being clear when manually inspected.)	+ (denotes solubility at the given condition, as determined by UV absorbance being less than 0.1 AU at 340 nm and the sample being clear when manually inspected.)	+ (denotes solubility at the given condition, as determined by UV absorbance being less than 0.1 AU at 340 nm and the sample being clear when manually inspected.)	+ (denotes solubility at the given condition, as determined by UV absorbance being less than 0.1 AU at 340 nm and the sample being clear when manually inspected.)	< 100 nM
117 h	CC[C@H](C)[C@@H]1NC(=O)[C@@H](NC(=O)[C@H](Cc2ccccc2)NC(=O)[C@H](CCC(=O)O)NC(=O)[C@H](CO)NC(C)=O)CSCC[C@@H](C(=O)N(C)CC(=O)N[C@@H](CCC(=O)O)C(=O)NCC(=O)N[C@@H](CCC(=O)O)C(=O)NCCOCCOCC(=O)NCCOCCOCC(=O)N[C@@H](CCCCNC(=O)CC[C@H](NC(=O)CNC(=O)CC[C@H](NC(=O)CCCCCCCCCCCCCCCCC(=O)O)C(=O)O)C(=O)O)C(N)=O)NC(=O)[C@H](CCCNC(=N)N)NC(=O)[C@H](Cc2c[nH]cn2)NC(=O)[C@H](CCC(=O)O)NC(=O)CNC(=O)[C@H](Cc2c[nH]c3ccccc23)NC(=O)[C@H](CC(=O)O)NC(=O)[C@H](CCC(N)=O)NC(=O)[C@H](Cc2cn(C)c3ccccc23)NC1=O [Compound 146, Ac-SEFA(1)I[1-Me-Trp]QDWGEHRhC(1)[Sar]EGE[Peg3][Peg3]-K([17-carboxy-heptadecanoyl][γGlu]G[γGlu])-NH2] (Ac-SEFCI[Trp(1-Me)]QDWGEHR[Abu(4-yl)][Sar]EGE[AEEA][AEEA]K([γGlu-Gly-γGlu-C18 diacid])-NH2; thioether 4-14)						< 100 nM
145 h	CC[C@H](C)[C@@H]1NC(=O)[C@@H](NC(=O)[C@H](Cc2ccccc2)NC(=O)[C@H](CCC(=O)O)NC(=O)[C@H](CO)NC(C)=O)CSSC[C@@H](C(=O)N(C)CC(=O)N[C@@H](CCC(=O)O)C(=O)NCC(=O)N[C@@H](CCC(=O)O)C(=O)N[C@@H](CO)C(=O)N[C@@H](CCC(=O)O)C(=O)N[C@@H](CO)C(=O)N[C@@H](CCCCNC(=O)CC[C@H](NC(=O)CCCCCCCCCCCCCCCCC(=O)O)C(=O)O)C(N)=O)NC(=O)[C@H](CCCNC(=N)N)NC(=O)[C@H](Cc2c[nH]cn2)NC(=O)[C@H](CCC(=O)O)NC(=O)CNC(=O)[C@H](Cc2c[nH]c3ccccc23)NC(=O)[C@H](CC(=O)O)NC(=O)[C@H](CCC(N)=O)NC(=O)[C@H](Cc2cn(C)c3ccccc23)NC1=O [Compound 141] (Ac-SEFCI[Trp(1-Me)]QDWGEHRC[Sar]EGESESK([γGlu-C18 diacid])-NH2; disulfide 4-14)						< 100 nM
100 h	CC[C@H](C)[C@@H]1NC(=O)[C@@H](NC(=O)[C@H](Cc2ccccc2)NC(=O)[C@H](CCC(=O)O)NC(=O)[C@H](CO)NC(C)=O)CSSC[C@@H](C(=O)N(C)CC(=O)N[C@@H](CCC(=O)O)C(=O)NCC(=O)N[C@@H](CCC(=O)O)C(=O)NCCOCCOCC(=O)N[C@@H](CCC(=O)O)C(=O)N[C@@H](CO)C(=O)N[C@@H](CCCCNC(=O)CC[C@H](NC(=O)CNC(=O)CC[C@H](NC(=O)CCCCCCCCCCCCCCCCC(=O)O)C(=O)O)C(=O)O)C(N)=O)NC(=O)[C@H](CCCNC(=N)N)NC(=O)[C@H](Cc2c[nH]cn2)NC(=O)[C@H](CCC(=O)O)NC(=O)CNC(=O)[C@H](Cc2c[nH]c3ccccc23)NC(=O)[C@H](CC(=O)O)NC(=O)[C@H](CCC(N)=O)NC(=O)[C@H](Cc2cn(C)c3ccccc23)NC1=O [Compound 140] (Ac-SEFCI[Trp(1-Me)]QDWGEHRC[Sar]EGE[AEEA]ESK([γGlu-Gly-γGlu-C18 diacid])-NH2; disulfide 4-14)						< 100 nM
20.1 h	CC[C@H](C)[C@@H]1NC(=O)[C@@H](NC(=O)[C@H](Cc2ccc(O)cc2)NC(=O)[C@H](CCC(=O)O)NC(=O)[C@H](CO)NC(=O)CNC(=O)[C@H](CCC(=O)O)NC(=O)CCCCCCCCCCCCCCC(=O)O)CSSC[C@@H](C(=O)N(C)CC(=O)N[C@@H](CCC(=O)O)C(N)=O)NC(=O)[C@H](CCCNC(=N)N)NC(=O)[C@H](Cc2c[nH]cn2)NC(=O)[C@H](CCC(=O)O)NC(=O)CNC(=O)[C@H](Cc2c[nH]c3ccccc23)NC(=O)[C@H](CC(=O)O)NC(=O)[C@H](CCC(N)=O)NC(=O)[C@H](Cc2cn(C)c3ccccc23)NC1=O [Compound 107] ({C16 diacid}-EGSEYCI[Trp(1-Me)]QDWGEHRC[Sar]E-NH2; disulfide 6-16)	− (denotes lack of solubility at the given condition, as UV absorbance at 340 nm exceeds 0.1 AU and/or it is visibly turbid or contains particles.)	− (denotes lack of solubility at the given condition, as UV absorbance at 340 nm exceeds 0.1 AU and/or it is visibly turbid or contains particles.)	+ (denotes solubility at the given condition, as determined by UV absorbance being less than 0.1 AU at 340 nm and the sample being clear when manually inspected.)	+ (denotes solubility at the given condition, as determined by UV absorbance being less than 0.1 AU at 340 nm and the sample being clear when manually inspected.)	+ (denotes solubility at the given condition, as determined by UV absorbance being less than 0.1 AU at 340 nm and the sample being clear when manually inspected.)	< 100 nM
127 h	CC[C@H](C)[C@@H]1NC(=O)[C@@H](NC(=O)[C@H](Cc2ccc(O)cc2)NC(=O)[C@H](CCC(=O)O)NC(=O)[C@H](CO)NC(C)=O)CSSC[C@@H](C(=O)N(C)CC(=O)N[C@@H](CCC(=O)O)C(=O)NCC(=O)N[C@@H](C)C(=O)N[C@@H](CCCCNC(=O)COCCOCCNC(=O)CC[C@H](NC(=O)COCCOCCNC(=O)CNC(=O)CC[C@H](NC(=O)CCCCCCCCCCCCCCCCC(=O)O)C(=O)O)C(=O)O)C(N)=O)NC(=O)[C@H](CCCNC(=N)N)NC(=O)[C@H](Cc2c[nH]cn2)NC(=O)[C@H](CCC(=O)O)NC(=O)CNC(=O)[C@H](Cc2c[nH]c3ccccc23)NC(=O)[C@H](CCC(=O)O)NC(=O)[C@H](CCC(N)=O)NC(=O)[C@H](Cc2cn(C)c3ccccc23)NC1=O [Compound 122] (Ac-SEYCI[Trp(1-Me)]QEWGEHRC[Sar]EGAK([AEEA-γGlu-AEEA-Gly-γGlu-C18 diacid])-NH2; disulfide 4-14)						< 500 nM
82 h	CC[C@H](C)[C@@H]1NC(=O)[C@@H](NC(=O)[C@H](Cc2ccccc2)NC(=O)[C@H](CCC(=O)O)NC(=O)[C@H](CO)NC(C)=O)CSSC[C@@H](C(=O)N(C)CC(=O)N[C@@H](CCC(=O)O)C(=O)NCC(=O)N[C@@H](CCC(=O)O)C(=O)N[C@@H](CO)C(=O)N[C@@H](CCC(=O)O)C(=O)N[C@@H](CO)C(=O)N[C@@H](CCCCNC(=O)CC[C@H](NC(=O)CNC(=O)CC[C@H](NC(=O)CCCCCCCCCCCCCCCCC(=O)O)C(=O)O)C(=O)O)C(N)=O)NC(=O)[C@H](CCCNC(=N)N)NC(=O)[C@H](Cc2c[nH]cn2)NC(=O)[C@H](CCC(=O)O)NC(=O)CNC(=O)[C@H](Cc2c[nH]c3ccccc23)NC(=O)[C@H](CC(=O)O)NC(=O)[C@H](CCC(N)=O)NC(=O)[C@H](Cc2cn(C)c3ccccc23)NC1=O [Compound 139] (Ac-SEFCI[Trp(1-Me)]QDWGEHRC[Sar]EGESESK([γGlu-Gly-γGlu-C18 diacid])-NH2; disulfide 4-14)						< 100 nM
